In patent US20070117770A1, “Human ribosomal DNA (rDNA) and ribosomal RNA (rRNA) nucleic acids and uses thereof” (Cylene Pharmaceuticals, Inc., priority 2005, published 2007):

What was measured:
Assay in all cases: Protein kinase inhibition assay
Type in all cases: biochemical
[1] = biological target: CDK3/cyclinE(h) (Homo sapiens, UniProt Q00526); details: read-out: percent residual activity of CDK3/cyclinE(h)
Description: (§1) Certain compounds were tested for activity in protein kinase inhibition assays. All substrates were dissolved and diluted to working stocks in de-ionized water, apart from histone H1 (10× working stock in 20 mM MOPS pH 7.0), PDKtide (10× working stock in 50 mM Tris pH 7.0) ATF2 (which is typically stored at a 20× working stock in 50 mM Tris pH 7.5, 150 mM NaCl, 0.1 mM EGTA, 0.03% Brij-35, 50% glycerol, 1 mM benzamidine, 0.2 mM PMSF and 0.1% R-mercaptoethanol), KKLNRTLSFAEPG (SEQ ID NO:203) and RRRLSFAEPG (SEQ ID NO:204) (50 mM HEPES pH 7.4) and GGEEEEYFELVKKKK (SEQ ID NO:205) (20 mM MOPS pH 7.0). All kinases were pre-diluted to a 10× working concentration prior to addition into the assay. The composition of the dilution buffer for each kinase is detailed below.
(§2) In a final reaction volume of 25 μl, CDK3/cyclinE (h) (5-10 mU) is incubated with 8 mM MOPS pH 7.0, 0.2 mM EDTA, 0.1 mg/ml histone H1, 10 mM MgAcetate and [gamma-33P-ATP] (specific activity approx. 500 cpm/pmol, concentration as required). The reaction is initiated by the addition of the MgATP mix. After incubation for 40 minutes at room temperature, the reaction is stopped by the addition of 5 μl of a 3% phosphoric acid solution. 10 μl of the reaction is then spotted onto a P30 filtermat and washed three times for 5 minutes in 75 mM phosphoric acid and once in methanol prior to drying and scintillation counting.

[2] = biological target: JAK3(h) (Homo sapiens, UniProt P52333); details: read-out: percent residual activity of JAK3(h)
Sequence of JAK3(h) (P52333 whole entry): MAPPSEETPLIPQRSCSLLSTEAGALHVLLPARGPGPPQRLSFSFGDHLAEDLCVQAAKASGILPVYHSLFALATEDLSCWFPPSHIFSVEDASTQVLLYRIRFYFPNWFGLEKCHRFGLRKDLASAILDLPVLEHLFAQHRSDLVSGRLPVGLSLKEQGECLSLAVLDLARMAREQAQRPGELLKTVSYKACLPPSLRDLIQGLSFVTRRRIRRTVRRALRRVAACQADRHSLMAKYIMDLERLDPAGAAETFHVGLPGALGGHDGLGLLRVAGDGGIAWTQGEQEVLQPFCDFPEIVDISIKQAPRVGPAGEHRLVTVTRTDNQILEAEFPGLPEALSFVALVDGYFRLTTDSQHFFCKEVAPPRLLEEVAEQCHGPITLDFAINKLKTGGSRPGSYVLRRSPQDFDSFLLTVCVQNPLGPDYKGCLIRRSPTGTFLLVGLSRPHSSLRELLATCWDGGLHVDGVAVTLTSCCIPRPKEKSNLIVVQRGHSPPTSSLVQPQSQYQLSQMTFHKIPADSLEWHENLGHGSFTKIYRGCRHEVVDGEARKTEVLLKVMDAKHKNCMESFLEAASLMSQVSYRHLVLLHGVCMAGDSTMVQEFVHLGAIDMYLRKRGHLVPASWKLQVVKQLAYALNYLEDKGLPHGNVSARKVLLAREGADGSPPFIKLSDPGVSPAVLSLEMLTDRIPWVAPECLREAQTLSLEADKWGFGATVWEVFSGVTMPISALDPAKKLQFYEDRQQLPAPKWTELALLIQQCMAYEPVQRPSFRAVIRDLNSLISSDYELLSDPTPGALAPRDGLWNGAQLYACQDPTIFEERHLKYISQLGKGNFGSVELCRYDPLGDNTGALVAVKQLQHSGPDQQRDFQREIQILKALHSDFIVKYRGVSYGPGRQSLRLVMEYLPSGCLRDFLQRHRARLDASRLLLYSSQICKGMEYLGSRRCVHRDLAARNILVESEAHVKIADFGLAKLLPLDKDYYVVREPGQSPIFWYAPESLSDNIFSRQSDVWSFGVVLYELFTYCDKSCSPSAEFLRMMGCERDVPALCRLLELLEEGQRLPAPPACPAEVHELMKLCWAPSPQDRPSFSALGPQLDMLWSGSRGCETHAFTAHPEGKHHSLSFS
Description: as §1
as §2, with “JAK3” for “CDK3/cyclinE”, “500 μM GGEEEEYFELVKKKK (SEQ ID NO:218),” for “0.1 mg/ml histone H1,”

[3] = biological target: Rsk1(r) (Rattus norvegicus, UniProt Q63531); details: read-out: percent residual activity of Rsk1(r)
Sequence of Rsk1(r) (Q63531 whole entry): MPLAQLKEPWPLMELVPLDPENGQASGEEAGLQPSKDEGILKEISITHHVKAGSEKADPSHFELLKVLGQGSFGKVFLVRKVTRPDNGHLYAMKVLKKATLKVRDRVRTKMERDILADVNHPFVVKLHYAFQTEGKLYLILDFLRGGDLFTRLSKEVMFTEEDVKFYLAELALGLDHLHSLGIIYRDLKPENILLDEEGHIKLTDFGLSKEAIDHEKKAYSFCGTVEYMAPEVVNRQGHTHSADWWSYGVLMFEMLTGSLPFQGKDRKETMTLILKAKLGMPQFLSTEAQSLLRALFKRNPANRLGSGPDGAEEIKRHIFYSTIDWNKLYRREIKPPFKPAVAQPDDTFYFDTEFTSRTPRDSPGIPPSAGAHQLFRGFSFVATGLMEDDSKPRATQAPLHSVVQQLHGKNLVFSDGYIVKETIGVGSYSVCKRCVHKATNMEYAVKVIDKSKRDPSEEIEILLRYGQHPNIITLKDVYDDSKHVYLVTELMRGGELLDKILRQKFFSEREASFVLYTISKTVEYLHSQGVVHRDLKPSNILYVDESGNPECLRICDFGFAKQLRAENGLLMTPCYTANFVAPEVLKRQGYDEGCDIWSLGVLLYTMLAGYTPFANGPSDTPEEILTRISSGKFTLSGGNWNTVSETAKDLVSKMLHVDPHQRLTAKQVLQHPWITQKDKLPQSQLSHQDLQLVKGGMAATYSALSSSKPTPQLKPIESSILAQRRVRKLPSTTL
Description: as §1
as §2, with “Rsk1 (r)” for “CDK3/cyclinE (h)”, “30 μM KKKNRTLSVA (SEQ ID NO:212),” for “0.1 mg/ml histone H1,”

[4] = biological target: Abl(T315I)(h) (Homo sapiens, UniProt P00519, T315I); details: read-out: percent residual activity of Abl(T315I)(h)
Description: as §1
as §2, with “Abl (T3151)” for “CDK3/cyclinE”, “50 μM EAIYAAPFAKKK (SEQ ID NO:206),” for “0.1 mg/ml histone H1,”

[5] = biological target: MSK1(h) (Homo sapiens, UniProt O75582); details: read-out: percent residual activity of MSK1(h)
Sequence of MSK1(h) (O75582 whole entry): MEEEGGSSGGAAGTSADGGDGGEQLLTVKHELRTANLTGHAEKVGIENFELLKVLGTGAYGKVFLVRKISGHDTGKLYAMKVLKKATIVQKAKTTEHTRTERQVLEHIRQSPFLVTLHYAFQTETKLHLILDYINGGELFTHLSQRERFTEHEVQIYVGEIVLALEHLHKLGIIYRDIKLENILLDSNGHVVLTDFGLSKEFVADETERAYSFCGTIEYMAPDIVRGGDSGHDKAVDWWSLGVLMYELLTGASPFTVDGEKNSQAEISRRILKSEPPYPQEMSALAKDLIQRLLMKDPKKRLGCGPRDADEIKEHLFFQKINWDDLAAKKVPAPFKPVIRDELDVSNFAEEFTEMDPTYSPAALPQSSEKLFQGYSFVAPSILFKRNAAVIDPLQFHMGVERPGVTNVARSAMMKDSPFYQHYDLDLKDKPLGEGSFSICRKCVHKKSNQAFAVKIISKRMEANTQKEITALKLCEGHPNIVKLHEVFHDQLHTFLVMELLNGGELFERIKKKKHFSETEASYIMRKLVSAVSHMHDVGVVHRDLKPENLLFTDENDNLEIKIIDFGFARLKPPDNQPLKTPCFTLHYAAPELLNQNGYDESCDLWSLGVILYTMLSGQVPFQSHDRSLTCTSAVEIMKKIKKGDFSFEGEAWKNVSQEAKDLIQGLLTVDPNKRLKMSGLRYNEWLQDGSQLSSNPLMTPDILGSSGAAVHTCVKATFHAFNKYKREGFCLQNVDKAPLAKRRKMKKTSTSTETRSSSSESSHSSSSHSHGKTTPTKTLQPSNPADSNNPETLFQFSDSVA
Description: as §1
as §2, with “MSK1” for “CDK3/cyclinE”, “30 μM GRPRTSSFAEGKK (SEQ ID NO:220),” for “0.1 mg/ml histone H1,”

[6] = biological target: PAK2(h) (Homo sapiens, UniProt Q13177); details: read-out: percent residual activity of PAK2(h)
Sequence of PAK2(h) (Q13177 whole entry): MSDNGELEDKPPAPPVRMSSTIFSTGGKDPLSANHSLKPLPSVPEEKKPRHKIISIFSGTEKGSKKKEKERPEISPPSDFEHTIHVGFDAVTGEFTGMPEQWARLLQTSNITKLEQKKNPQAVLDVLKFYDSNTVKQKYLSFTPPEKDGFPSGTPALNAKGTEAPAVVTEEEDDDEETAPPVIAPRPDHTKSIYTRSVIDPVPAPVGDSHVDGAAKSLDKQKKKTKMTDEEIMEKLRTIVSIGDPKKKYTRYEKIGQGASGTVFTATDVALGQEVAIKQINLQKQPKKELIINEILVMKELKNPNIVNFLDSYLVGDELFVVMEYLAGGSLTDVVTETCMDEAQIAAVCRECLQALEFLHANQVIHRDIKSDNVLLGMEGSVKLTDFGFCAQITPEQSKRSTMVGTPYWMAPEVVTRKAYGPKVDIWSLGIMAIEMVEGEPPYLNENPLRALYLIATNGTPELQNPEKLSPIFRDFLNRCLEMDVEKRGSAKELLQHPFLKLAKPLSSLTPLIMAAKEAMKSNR
Description: as §1
as §2, with “PAK2” for “CDK3/cyclinE”, “30 μM […] (SEQ ID NO:222),” for “0.1 mg/ml histone H1,”

Sequence of CDK3/cyclinE(h) (Q00526 whole entry): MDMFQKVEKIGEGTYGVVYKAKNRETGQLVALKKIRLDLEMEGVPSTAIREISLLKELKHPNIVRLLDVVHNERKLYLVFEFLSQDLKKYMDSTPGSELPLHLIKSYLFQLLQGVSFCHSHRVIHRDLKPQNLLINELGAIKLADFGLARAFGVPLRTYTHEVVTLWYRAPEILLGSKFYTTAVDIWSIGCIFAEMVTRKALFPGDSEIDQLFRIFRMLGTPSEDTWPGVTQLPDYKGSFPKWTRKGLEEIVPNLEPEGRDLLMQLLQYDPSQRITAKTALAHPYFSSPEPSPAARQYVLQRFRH
Sequence of CDK3/cyclinE(h) (P24864 whole entry partner): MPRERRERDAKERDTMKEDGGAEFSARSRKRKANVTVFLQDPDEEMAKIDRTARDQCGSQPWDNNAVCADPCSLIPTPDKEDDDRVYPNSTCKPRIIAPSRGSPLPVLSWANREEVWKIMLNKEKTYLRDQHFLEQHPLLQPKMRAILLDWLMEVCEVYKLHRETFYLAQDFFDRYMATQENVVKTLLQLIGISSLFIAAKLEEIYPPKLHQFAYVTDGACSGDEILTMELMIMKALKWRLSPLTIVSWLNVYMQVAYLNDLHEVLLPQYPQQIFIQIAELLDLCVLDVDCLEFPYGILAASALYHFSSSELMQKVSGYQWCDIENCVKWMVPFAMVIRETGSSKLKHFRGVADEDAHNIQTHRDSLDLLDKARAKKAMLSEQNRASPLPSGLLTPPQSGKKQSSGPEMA

| remaining activity at 2.5 µM [1] | remaining activity at 2.5 µM [2] | remaining activity at 2.5 µM [3] | remaining activity at 2.5 µM [4] | remaining activity at 2.5 µM [5] | remaining activity at 2.5 µM [6] | Structure (SMILES) |
| --- | --- | --- | --- | --- | --- | --- |
| 103% | 109% | 110% | 106% | 99% | 95% | CC(=O)N1CCN(c2ccc3c(=O)c(C(=O)NCCN4CCCC4)c4n(C)c5ccccc5n4c3n2)CC1 [Compound B-1] |
| 93% | 112% | 85% | 52% | 61% | 73% | CN1CCCC1CCNC(=O)c1cn2c3c(c(N4CCC(c5cnccn5)C4)c(F)cc3c1=O)Oc1cc3ccccc3cc1-2 (stereo not drawn) [Compound A-1] |
